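Five concentrations, 48 hours, 96-well plates. Abbreviation: GI50, concentration required for 50% inhibition of growth. TGI: total growth inhibition.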
Legend:
Test in all cases: DTP human tumour cell line panel, 48 h
[1] = system: 786-0 renal
[2] = system: SF-268 CNS
[3] = system: RPMI-8226 leukemia
[4] = system: RXF 393 renal
[5] = system: HL-60(TB) leukemia
[6] = system: U251 CNS
[7] = system: SK-OV-3 ovarian
[8] = system: UACC-62 melanoma

| SMILES | GI50 [1] | TGI [1] | GI50 [2] | TGI [2] | GI50 [3] | TGI [3] | GI50 [4] | TGI [4] | GI50 [5] | TGI [5] | GI50 [6] | TGI [6] | GI50 [7] | TGI [7] | GI50 [8] | TGI [8] |
| --- | --- | --- | --- | --- | --- | --- | --- | --- | --- | --- | --- | --- | --- | --- | --- | --- |
| CCOc1ccc2nc(SCc3nc4n(n3)S(=O)(=O)c3ccccc3N4C)sc2c1 | > 100 µM | > 100 µM | 57.6 µM | > 100 µM | 31500 nM | > 100 µM | 30.1 µM | 97.3 µM | 82.7 µM | > 100 µM | 68500 nM | > 100 µM | > 100 µM | > 100 µM | > 100 µM | > 100 µM |
| Cc1ccc(C)c2c1C(O)(C#Cc1ccccc1)c1ccccc1C2(O)C#Cc1ccccc1 (centres undefined) | 3.72 µM | > 35.7 µM | 3.65 µM | > 100 µM | 1830 nM | – | – | – | 4.04 µM | > 100 µM | 2760 nM | > 100 µM | 3.44 µM | > 100 µM | 2.84 µM | > 100 µM |
| COc1cc(NC(N)=NCCC(C)(C)Oc2ccc(C(F)(F)F)cc2)ncc1C#N | 1.61 µM | 3.14 µM | 1.72 µM | 3.31 µM | – | – | 1.68 µM | 3.11 µM | – | – | 1790 nM | 3.22 µM | 1.84 µM | 3.26 µM | 1.78 µM | 3.18 µM |
| CC(C)=CCc1c(OC(=O)c2c(C)cc(O)cc2O)cc(CO)c(CO)c1O | – | > 100 µM | – | 85 µM | – | – | – | – | – | 19.1 µM | – | 40 µM | – | 30.9 µM | – | 29.6 µM |
| O=C1c2ccccc2-c2c1c1c(=O)[nH]c3ccccc3c1n2Cc1ccccc1 | 33 µM | 85 µM | 17.7 µM | 48.7 µM | > 100000 nM | > 100 µM | 29.7 µM | 70.4 µM | > 100 µM | > 100 µM | 16600 nM | 34.1 µM | 20.7 µM | 45.8 µM | 33.8 µM | > 100 µM |
| COc1cc(C#Cc2ccc(=O)oc2C#Cc2ccccc2)cc(OC)c1OC | 3.39 µM | 12.2 µM | 2.38 µM | 5.85 µM | 2330 nM | 17.7 µM | 2.21 µM | 4.34 µM | 4.62 µM | 40.1 µM | 1900 nM | 3.6 µM | 15.2 µM | > 74.5 µM | 3.89 µM | 9.18 µM |
| COc1cc(/C=C2\C(=O)Nc3cc(C)c(O)cc32)cc(OC)c1OC | 10.4 µM | 23.5 µM | 5.34 µM | 36 µM | 1470 nM | 4.41 µM | 3.46 µM | 13.4 µM | 1.74 µM | 5.84 µM | 3540 nM | 16.1 µM | 7.34 µM | 54.1 µM | 3.82 µM | 16.8 µM |
| CCCC(=O)NC1=C(Cl)C(=O)c2ccccc2C1=O | – | 8.92 µM | – | 30.2 µM | – | 6.19 µM | – | 6.08 µM | – | 0.899 µM | – | 15.3 µM | – | 27.1 µM | – | 10.3 µM |
| CCOC(=O)c1sc(-c2ccc(OS(=O)(=O)c3ccc(Br)s3)c(C=O)c2)nc1C | 2.75 µM | 8.16 µM | 3.01 µM | 13.2 µM | 1940 nM | 5.18 µM | 2.81 µM | 13.5 µM | 3.66 µM | 19.7 µM | 2680 nM | 10.3 µM | 36.4 µM | 97.1 µM | 2.21 µM | 5.97 µM |
